# Data reported in ChEMBL document CHEMBL1141176, “Quantitative structure-activity relationship (5D-QSAR) study of combretastatin-like analogues as inhibitors of tubulin assembly” (J Med Chem, 2005).
# Molecular target: Tubulin beta-1 chain (Homo sapiens, UniProt Q9H4B7)
# Assay: Concentration required for 50% inhibition of tubulin polymerization
# Sequence of Tubulin beta-1 chain (Q9H4B7 whole entry): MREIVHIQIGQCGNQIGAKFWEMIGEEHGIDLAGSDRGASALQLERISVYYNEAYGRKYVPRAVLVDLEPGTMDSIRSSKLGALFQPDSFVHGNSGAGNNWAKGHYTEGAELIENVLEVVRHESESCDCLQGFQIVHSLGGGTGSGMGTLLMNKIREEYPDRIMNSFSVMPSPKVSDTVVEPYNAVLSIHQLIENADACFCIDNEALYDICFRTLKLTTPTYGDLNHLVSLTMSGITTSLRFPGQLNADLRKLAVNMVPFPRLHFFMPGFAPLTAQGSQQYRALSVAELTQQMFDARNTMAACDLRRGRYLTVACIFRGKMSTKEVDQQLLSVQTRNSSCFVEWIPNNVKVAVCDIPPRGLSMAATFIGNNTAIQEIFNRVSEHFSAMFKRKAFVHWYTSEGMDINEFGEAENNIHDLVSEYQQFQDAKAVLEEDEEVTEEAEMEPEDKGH
row,Structure (SMILES),IC50 [nM]
1,COc1ccc(/C=C\c2cc(F)c(F)c(F)c2)cc1O,4500
2,COc1ccc(OC)c(C(=O)/C(C)=C/c2ccc(N(C)C)cc2)c1,10000
3,CO/C(=C\c1cc(F)c(OC)c(F)c1)C(=O)c1cc(OC)c(OC)c(OC)c1,1700
4,COc1ccc(COc2cc(OC)c(OC)c(OC)c2)cc1O,7200
5,COc1ccc(/C(C)=C/c2cc(OC)c(OC)c(OC)c2)cc1O,9000
6,COc1ccc(COc2cc(OC)c(OC)c(OC)c2)cc1OCC=O,41000
7,COc1ccc(C(=O)/C=C/c2cc(F)c(OC)c(F)c2)c(OC)c1OC,31000
8,COc1ccc(/C=C\c2cc(F)c(F)c(F)c2)cc1F,5500
9,COc1ccc(C(=O)/C=C/c2cc(O)c(O)c(O)c2)c(OC)c1OC,> 100000
10,COc1ccc(/C=C\c2cc(C)c(C)c(C)c2)cc1O,120
11,CC/C(=C/c1ccc(OC)c(O)c1)c1cc(OC)c(OC)c(OC)c1,130
12,COc1ccc(/C=C/C(=O)c2cc(OC)c(OC)c(OC)c2)cc1O,620
13,COc1ccc(/C=C/C(=O)c2ccc(OC)c(OC)c2OC)cc1O,450
14,COc1ccc(Oc2cc(OC)c(OC)c(OC)c2)cc1O,11000
15,COc1ccc(/C=C\c2cc(O)c(OC)c(OC)c2)cc1F,1250
16,COc1ccc(/C=C(\C)C(=O)c2cc(OC)c(OC)c(OC)c2)cc1[N+](=O)[O-],> 10000
17,COc1ccc(/C=C/C(=O)c2ccc(OC)c(OC)c2OC)cc1F,7900
18,COc1ccc(/C=C/C(=O)c2cc(OC)c(OC)c(OC)c2)cc1N,2000
19,COc1ccc(/C=C\c2cc(C)c(C)c(C)c2)cc1,650
20,COc1cc(C(=O)/C=C/c2ccc(O)c(O)c2)cc(OC)c1OC,> 100000
21,COc1ccc(/C=C\c2ccc(C)c(C)c2)cc1F,6600
22,COc1ccc(/C=C\c2cc(C)c(C)c(C)c2)cc1F,700
23,COc1ccc(/C=C(/C)c2cc(OC)c(OC)c(OC)c2)cc1,1300

row,Structure (SMILES),IC50 [nM]
1,COc1ccc(Nc2cc(OC)c(OC)c(OC)c2)cc1O,> 100000
2,CO/C(=C\c1ccc(OC)c(O)c1)C(=O)c1cc(OC)c(OC)c(OC)c1,510
3,COc1ccc(/C=C(\C)C(O)c2cc(OC)c(OC)c(OC)c2)cc1O (stereo not given),> 10000
4,COc1ccc(/C=C\c2cc(OC)c(OC)c(OC)c2)cc1,200
5,COc1ccc(/C=C(/C)c2cc(OC)c(OC)c(OC)c2)cc1O,130
6,CCOc1cc(/C=C\c2ccc(OC)c(F)c2)cc(OCC)c1OCC,1200
7,COc1ccc(OCc2cc(OC)c(OC)c(OC)c2)cc1O,21000
8,COc1ccc(CC(C)C(=O)c2cc(OC)c(OC)c(OC)c2)cc1O (stereo not given),4000
9,CCc1ccc(/C=C\c2cc(OC)c(OC)c(OC)c2)cc1,3400
10,COc1ccc(/C=C(\C)C(=O)c2cc(OC)c(OC)c(OC)c2)cc1F,650
11,COc1cc(C(=O)/C(C)=C/c2cc(F)c(OC)c(F)c2)cc(OC)c1OC,2400
12,COc1ccc(/C=C(\C)C(=O)c2cc(OC)c(OC)c(OC)c2)cc1O,460
13,COc1ccc(COc2cc(OC)c(OC)c(OC)c2)cc1OCC(O)CO (stereo not given),> 100000
14,COc1ccc(/C=C\c2ccc(C)c(C)c2)cc1O,3100
15,COc1ccc(/C=C\c2ccccc2)cc1O,2500
16,COc1ccc(OCc2cc(OC)c(OC)c(OC)c2)cc1CO,> 100000
17,COc1cc(C(=O)/C=C/c2cc(F)c(OC)c(F)c2)cc(OC)c1OC,12000
18,CCOc1cc(/C=C\c2ccc(OC)c(O)c2)cc(OCC)c1OCC,500
19,CO/C(=C\c1ccc(OC)c(F)c1)C(=O)c1cc(OC)c(OC)c(OC)c1,470
20,COc1ccc(/C=C/C(=O)c2cc(OC)c(OC)c(OC)c2)cc1F,1200
21,COc1cc(/C=C\c2ccc(C)c(C)c2)cc(OC)c1OC,2000
22,COc1ccc(OCc2cc(OC)c(OC)c(OC)c2)cc1C=O,560
